In brackets after ≈: the same amount, converted by molar mass. Read-outs that look alike come from different tables or passages of the source.
What was measured:
Type in all cases: cell-based
E. coli UC 311 = test: standard microplate test in BHI Agar; conditions: Escherichia coli, UC311, 20 h, read-out: Minimal Inhibitory Concentration
Experimental: (§1) The compounds VII, XI, XVβ, XVα and XVI were tested in a standard microplate test in BHI (Brain Heart Infusion) Agar at a concentration of 1 mg./ml. and dilutions thereof at 37° incubation temperature. The end points are read out 20 hours. BHI Agar is supplied by Difco Laboratories, Detroit, Mich.

E. coli UC 45 = test: standard microplate test in BHI Agar; conditions: Escherichia coli, UC45, 37°, 20 hours, Table III, read-out: Minimum Inhibitory Concentration
Experimental: as §1

P. morganii UC 3186 = test: standard microplate test in BHI Agar; conditions: Morganella morganii, UC3186, 20 h
Experimental: as §1

S. pneumoniae I UC 41 = test: standard microplate test in BHI Agar; conditions: Streptococcus pneumoniae, UC41, 20 h
Experimental: as §1

P. vulgaris UC 93 [1] = test: standard microplate test in BHI Agar; conditions: Proteus vulgaris, UC93, 20 h
Experimental: as §1

S. flexneri UC 143 = test: standard microplate test in BHI Agar; conditions: Shigella flexneri, UC143, 37°, 20 hours
Experimental: as §1

Ps. aeruginosa UC 95 [2] = test: standard microplate test in BHI Agar; conditions: Pseudomonas aeruginosa, UC95, 20 h
Experimental: as §1

S. faecalis UC 694 = test: standard microplate test in BHI Agar; conditions: Enterococcus faecalis, UC694, 20 h
Experimental: as §1

S. aureus UC 76 = test: standard microplate test in BHI Agar; conditions: Staphylococcus aureus, UC76, 20 h
Experimental: as §1

S. typhi UC 215 = test: standard microplate test in BHI Agar; conditions: Salmonella enterica, BHI Agar, 37°, 20 hours
Experimental: as §1

S. marcescens UC 131 = test: standard microplate test in BHI Agar; conditions: Serratia marcescens, UC131, 20 h
Experimental: as §1

P. mirabilis UC 6671 = test: standard microplate test in BHI Agar; conditions: Proteus mirabilis, UC6671, 20 h
Experimental: as §1

S. pyogenes UC 152 = test: standard microplate test in BHI Agar; conditions: Streptococcus pyogenes, UC152, 20 h
Experimental: as §1

B. cereus UC 3145 = test: standard disc plate assay, zones of inhibition; conditions: Bacillus cereus, 12.5 mm paper discs; for zone of inhibition at 100 µg/mL: UC3145, read-out: Zones of Inhibition, 0.1 mg/ml; for zone of inhibition at 1000 µg/mL: UC3145, read-out: Zones of Inhibition, 1 mg/ml
Excerpt: (§2) The compounds of formulas (V, VII, IX, XI, XIV, XVI, and XIX) are active as antibacterials and can be used in various environments to erradicate or control susceptible microorganisms. Tables I and II set forth the in vitro antibacterial test results for representative compounds of the present invention. The results were obtained with a standard disc plate assay using 12.5 mm paper discs.

S. gallinarum UC 265 = test: standard disc plate assay, zones of inhibition; conditions: for Zones of Inhibition: 12.5 mm paper discs, Table II
Excerpt: as §2

B. subtilis UC 564 = test: standard disc plate assay, zones of inhibition; conditions: Bacillus subtilis, 12.5 mm paper discs; for zone of inhibition at 100 µg/mL: UC564, read-out: Zones of Inhibition, 0.1 mg/ml; for zone of inhibition at 1000 µg/mL: UC564, read-out: Zones of Inhibition, 1 mg/ml
Excerpt: as §2

S. schottmuelleri UC 126 = test: standard disc plate assay, zones of inhibition; conditions: 12.5 mm paper discs; for zone of inhibition at 100 µg/mL: 0.1 mg/ml; for zone of inhibition at 1000 µg/mL: 1 mg/ml
Excerpt: as §2

P. vulgaris UC 93 [3] = test: standard disc plate assay, zones of inhibition; conditions: Proteus vulgaris, 12.5 mm paper discs; for zone of inhibition at 100 µg/mL: UC93, read-out: Zones of Inhibition, 0.1 mg/ml; for zone of inhibition at 1000 µg/mL: UC93, read-out: Zones of Inhibition, 1 mg/ml
Excerpt: as §2

K. pneumoniae UC 57 = test: standard disc plate assay, zones of inhibition; conditions: Klebsiella pneumoniae, 12.5 mm paper discs; for zone of inhibition at 100 µg/mL: UC57, read-out: Zones of Inhibition, 0.1 mg/ml; for zone of inhibition at 1000 µg/mL: UC57, read-out: Zones of Inhibition, 1 mg/ml
Excerpt: as §2

Ps. aeruginosa UC 95 [4] = test: standard disc plate assay, zones of inhibition; conditions: Pseudomonas aeruginosa, UC95, read-out: Zones of Inhibition, 1 mg/ml, 12.5 mm paper discs
Excerpt: as §2

E. coli UC 51 = test: standard disc plate assay, zones of inhibition; conditions: Escherichia coli, 12.5 mm paper discs; for zone of inhibition at 100 µg/mL: UC51, read-out: Zones of Inhibition, 0.1 mg/ml; for zone of inhibition at 1000 µg/mL: UC51, read-out: Zones of Inhibition, 1 mg/ml
Excerpt: as §2

S. lutea UC 130 = test: standard disc plate assay, zones of inhibition
Excerpt: as §2

S. aureus UC 80 = test: standard disc plate assay, zones of inhibition; conditions: Staphylococcus aureus, 12.5 mm paper discs; for zone of inhibition at 100 µg/mL: UC80, read-out: Zones of Inhibition, 0.1 mg/ml; for zone of inhibition at 1000 µg/mL: UC80, read-out: Zones of Inhibition, 1 mg/ml
Excerpt: as §2

[5] = read-out: Minimal Inhibitory Concentration
[6] = read-out: Minimum Inhibitory Concentration
[7] = Table III, read-out: Minimum Inhibitory Concentration
[8] = Table IV, read-out: Minimal Inhibitory Concentration
[9] = Salmonella enterica, read-out: Zones of Inhibition

SMILES: NC[C@H]1O[C@H](O[C@H]2[C@H](O)[C@@H](O)[C@H](N)C[C@@H]2N)[C@H](N)[C@@H](O)[C@@H]1O [Neamine]
- MIC (E. coli UC 311): 125 µg/mL (≈ 388 µM)
- MIC (E. coli UC 45): 62.5 µg/mL (≈ 194 µM)
- MIC (P. morganii UC 3186; [5]): 31.2 µg/mL (≈ 96.8 µM)
- MIC (P. morganii UC 3186; [6]): 62.5 µg/mL (≈ 194 µM)
- MIC (S. pneumoniae I UC 41; [5]): 62.5 µg/mL (≈ 194 µM)
- MIC (S. pneumoniae I UC 41; [6]): 62.5 µg/mL (≈ 194 µM)
- MIC (P. vulgaris UC 93 [1]; [5]): 62.5 µg/mL (≈ 194 µM)
- MIC (P. vulgaris UC 93 [1]; [6]): 62.5 µg/mL (≈ 194 µM)
- MIC (S. flexneri UC 143; [7]): 62.5 µg/mL (≈ 194 µM)
- MIC (S. flexneri UC 143; [8]): 125 µg/mL (≈ 388 µM)
- MIC (Ps. aeruginosa UC 95 [2]; [5]): > 500 µg/mL
- MIC (Ps. aeruginosa UC 95 [2]; [6]): > 500 µg/mL
- MIC (S. faecalis UC 694; [5]): > 500 µg/mL
- MIC (S. faecalis UC 694; [6]): > 500 µg/mL
- MIC (S. aureus UC 76; [5]): 7.8 µg/mL (≈ 24.2 µM)
- MIC (S. aureus UC 76; [6]): 3.9 µg/mL (≈ 12.1 µM)
- MIC (S. typhi UC 215; [7]): 15.6 µg/mL (≈ 48.4 µM)
- MIC (S. typhi UC 215; [8]): 31.2 µg/mL (≈ 96.8 µM)
- MIC (S. marcescens UC 131; [5]): 250 µg/mL (≈ 776 µM)
- MIC (S. marcescens UC 131; [6]): 250 µg/mL (≈ 776 µM)
- MIC (P. mirabilis UC 6671; [5]): 250 µg/mL (≈ 776 µM)
- MIC (P. mirabilis UC 6671; [6]): 62.5 µg/mL (≈ 194 µM)
- MIC (S. pyogenes UC 152; [5]): 7.8 µg/mL (≈ 24.2 µM)
- MIC (S. pyogenes UC 152; [6]): 7.8 µg/mL (≈ 24.2 µM)
- zone of inhibition at 100 µg/mL (B. cereus UC 3145; Table I): 15 mm
- zone of inhibition at 100 µg/mL (B. cereus UC 3145; Table II): 15 mm
- zone of inhibition at 1000 µg/mL (B. cereus UC 3145; Table I): 24 mm
- zone of inhibition at 1000 µg/mL (B. cereus UC 3145; Table II): 23 mm
- Zones of Inhibition (S. gallinarum UC 265; 0.1 mg/ml): 19 mm
- Zones of Inhibition (S. gallinarum UC 265; 1 mg/ml): 29 mm
- zone of inhibition at 100 µg/mL (S. gallinarum UC 265; [9]): 19 mm
- zone of inhibition at 1000 µg/mL (S. gallinarum UC 265; [9]): 29 mm
- zone of inhibition at 100 µg/mL (B. subtilis UC 564; Table I): 30 mm
- zone of inhibition at 100 µg/mL (B. subtilis UC 564; Table II): 28 mm
- zone of inhibition at 1000 µg/mL (B. subtilis UC 564; Table I): 39 mm
- zone of inhibition at 1000 µg/mL (B. subtilis UC 564; Table II): 37 mm
- zone of inhibition at 100 µg/mL (S. schottmuelleri UC 126; Table I): 16 mm
- zone of inhibition at 100 µg/mL (S. schottmuelleri UC 126; Table II): 15 mm
- zone of inhibition at 1000 µg/mL (S. schottmuelleri UC 126; Table I): 24 mm
- zone of inhibition at 1000 µg/mL (S. schottmuelleri UC 126; Table II): 23 mm
- zone of inhibition at 100 µg/mL (P. vulgaris UC 93 [3]; Table I): 18 mm
- zone of inhibition at 100 µg/mL (P. vulgaris UC 93 [3]; Table II): 15 mm
- zone of inhibition at 1000 µg/mL (P. vulgaris UC 93 [3]; Table I): 27 mm
- zone of inhibition at 1000 µg/mL (P. vulgaris UC 93 [3]; Table II): 28 mm
- zone of inhibition at 100 µg/mL (K. pneumoniae UC 57; Table I): 27 mm
- zone of inhibition at 100 µg/mL (K. pneumoniae UC 57; Table II): 26 mm
- zone of inhibition at 1000 µg/mL (K. pneumoniae UC 57; Table I): 34 mm
- zone of inhibition at 1000 µg/mL (K. pneumoniae UC 57; Table II): 32 mm
- zone of inhibition at 1000 µg/mL (Ps. aeruginosa UC 95 [4]; Table I): 17 mm
- zone of inhibition at 1000 µg/mL (Ps. aeruginosa UC 95 [4]; Table II): 18 mm
- zone of inhibition at 100 µg/mL (E. coli UC 51; Table I): 19 mm
- zone of inhibition at 100 µg/mL (E. coli UC 51; Table II): 18 mm
- zone of inhibition at 1000 µg/mL (E. coli UC 51; Table I): 27 mm
- zone of inhibition at 1000 µg/mL (E. coli UC 51; Table II): 25 mm
- Zones of Inhibition (S. lutea UC 130; 1 mg/ml, 12.5 mm paper discs, Table II): 17 mm
- zone of inhibition at 1000 µg/mL (S. lutea UC 130; Micrococcus luteus, UC130, read-out: Zones of Inhibition): 17 mm
- zone of inhibition at 100 µg/mL (S. aureus UC 80; Table I): 20 mm
- zone of inhibition at 100 µg/mL (S. aureus UC 80; Table II): 18 mm
- zone of inhibition at 1000 µg/mL (S. aureus UC 80; Table I): 29 mm
- zone of inhibition at 1000 µg/mL (S. aureus UC 80; Table II): 26 mm

From US4169197A, “6-Deoxyneamines aminoglycoside compounds” (The Upjohn Company, priority 1978, dated 1979)
